The values below come from patent US5218125A, “Antihypertensive compound and method of use thereas” (Merck & Co., Inc., priority 1992, dated 1993).

This assay has as its target T1, Angiotensin II (A II) receptor (Oryctolagus cuniculus, UniProt P34976).
T1 construct: 125I-Sar1,Ile8-angiotensin II displacement
T1 sequence (P34976 1-359): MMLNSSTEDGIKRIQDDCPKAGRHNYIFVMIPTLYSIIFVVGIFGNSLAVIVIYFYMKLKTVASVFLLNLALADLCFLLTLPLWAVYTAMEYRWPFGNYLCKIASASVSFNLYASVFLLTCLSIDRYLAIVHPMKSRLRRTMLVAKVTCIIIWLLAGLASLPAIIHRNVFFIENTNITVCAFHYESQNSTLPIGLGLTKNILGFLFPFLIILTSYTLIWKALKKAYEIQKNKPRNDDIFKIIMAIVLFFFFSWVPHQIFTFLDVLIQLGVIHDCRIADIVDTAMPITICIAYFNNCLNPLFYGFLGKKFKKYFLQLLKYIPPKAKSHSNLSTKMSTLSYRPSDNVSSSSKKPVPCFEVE
Description: Receptor binding assay using rabbit aortae membrane preparation (125I-Sar1 Ile8-angiotensin II displacement, "IC50" assay). The procedure:
This assay is also referred to herein as the "IC50 " assay.
RECEPTOR BINDING ASSAY USING RABBIT AORTAE MEMBRANE PREPARATION
Three frozen rabbit aortae (obtained from Pel-Freeze Biologicals) were suspended in 5 mM Tris-0.25M Sucrose, pH 7.4 buffer (50 mL) homogenized, and then centrifuged. The mixture was filtered through a cheesecloth and the supernatant was centrifuged for 30 minutes at 20,000 rpm at 4° C. The pellet thus obtained was resuspended in 30 ml of 50 mM Tris-5 mM MgCl2 buffer containing 0.2% Bovine Serum Albumin and 0.2 mg/mL Bacitratin and the suspension was used for 100 assay tubes. Samples tested for screening were done in duplicate. To the membrane preparation (0.25 mL) there was added ^125 I-Sar^1 Ile^8 -angiotensin II [obtained from New England Nuclear] (10 uL; 20,000 cpm) with or without the test sample and the mixture was incubated at 37° C. for 90 minutes. The mixture was then diluted with ice-cold 50 mM Tris-0.9% NaCl, pH 7.4 (4 mL) and filtered through a glass fiber filter (GF/B Whatman 2.4" diameter). The filter was soaked in scintillation cocktail (10 mL) and counted for radioactivity using Packard 2660 Tricarb liquid scintillation counter. […]

Turning to `CCCC(O)c1nc(Cl)c(CO)n1Cc1ccc(-c2ccccc2-c2nn[nH]n2)cc1` (stereo not shown) [Compound (I)], the “A II antagonist activity by the IC50 assay” value is given as “exhibits A II antagonist activity”.
